Experimental data from US4448717A, “Pharmacologically active peptides” (Eli Lilly and Company, priority 1982, dated 1984).

Key:
mouse (Harlan ND4) = assay: mouse hot plate test (mouse jump); format: in vivo; details: subcutaneous injection, 15 minutes after administration, hot plate 55° C., dose producing analgesia in 50% of mice
Procedure: In this test, an upright acrylic cylinder comprising, as its base, a hot plate surface which is maintained at 55° C. is used. A mouse (Harlan ND4) is given, by subcutaneous injection, a predetermined amount of test compound dissolved or suspended in a suitable carrier, and, 15 minutes after administration of the test compound, the mouse is placed on the hot plate surface. The latency in seconds until the mouse jumps from the hot plate surface is measured. […] This must occur in a dose range which produces no motor incoordination or incapacitation. The following Table records ED50 results obtained from this test. By the term "ED50 " is meant that dose which produces analgesia in 50% of the mice tested. Analgesia is defined as a response latency in the presence of test compound that is equal to or greater than the control response latency plus two standard deviations. The percent analgesia data are converted to probits, and the ED50 is calculated by regression analysis of the dose-response data. Each dose response curve must have at least four points, and each point is determined using data from a minimum of ten treated mice and ten control mice.

enkephalin (δ) receptor = biological target: T1, enkephalin (δ) receptor (Mus musculus, UniProt P32300); assay: mouse vas deferens assay; format: cell-based; details: depression of 50% of the electrically evoked contraction, field stimulation 0.15 Hz, 37° C.
T1 construct: from tissue; host or cells: mouse vas deferens (Harlan ND4 mice)
T1 sequence (P32300 whole entry): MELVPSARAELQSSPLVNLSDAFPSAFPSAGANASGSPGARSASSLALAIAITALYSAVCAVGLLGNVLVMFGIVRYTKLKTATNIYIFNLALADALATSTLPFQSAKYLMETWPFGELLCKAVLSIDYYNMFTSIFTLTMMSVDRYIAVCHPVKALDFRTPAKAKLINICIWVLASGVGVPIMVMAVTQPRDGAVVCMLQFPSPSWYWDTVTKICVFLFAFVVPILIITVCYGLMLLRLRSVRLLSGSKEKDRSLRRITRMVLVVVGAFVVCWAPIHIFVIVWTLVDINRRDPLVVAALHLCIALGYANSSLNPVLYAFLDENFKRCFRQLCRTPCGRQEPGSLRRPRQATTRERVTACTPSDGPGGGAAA
Procedure: In the mouse vas deferens test, single mouse vas deferens from mature mice (Harlan ND4, 30-40 g.) are suspended in 3 ml. of modified Kreb's solution aerated with 95% O2 -5% CO2 and maintained at 37° C. The twitch induced by field stimulation (0.15 Hz, 1 msec., 40V) is recorded on a polygraph via an isometric transducer. The test compound is added to the bath in 20 to 30 μl. aliquots. A dose-response curve is constructed by cumulative addition of appropriate amounts of the compound to the bath. Comparison of relative agonist potency at the δ receptor is made on the basis of IC50 values (concentration causing depression of 50% of the electrically evoked contraction).
The Table following also provides results for compounds of this invention when tested in the mouse vas deferens assay.

mice = details: cited from earlier work

Compound | Mouse Jump ED50 (mouse (Harlan ND4)) [mg/kg] | IC50 (enkephalin (δ) receptor) [nM] | analgesic activity when administered parenterally (mice)
CC(=O)C(Cc1ccccc1)NC(=O)CNC(=O)[C@@H](C)NC(=O)[C@@H](N)Cc1ccc(O)cc1 (stereo partly drawn) [Example 1, L-Tyrosyl-D-alanyl-N-(2-oxo-1-benzylpropyl)glycinamide] | 3.2 | 0.49 | –
CCN(C(=O)CNC(=O)[C@@H](C)NC(=O)[C@@H](N)Cc1ccc(O)cc1)[C@@H](Cc1ccccc1)C(C)=O [Example 2, L-Tyrosyl-D-alanyl-N-ethyl-N-(2-oxo-1-benzylpropyl)glycinamide] | 0.006 | 0.71 | –
H-Tyr-Gly-Gly-Phe-Met-OH [methionine enkephalin] | – | – | practically devoid of any useful analgesic activity
